Experimental data: patent publication US5399487A, “6-peptidylamino-1-naphthalenesulfonamides useful as fluorogenic proteolytic enzyme substrates” (Haematologic Technologies, Inc., priority 1993, dated 1995)

Columns and labels:
Format in all cases: biochemical
[1] = target: tissue plasminogen activator (t-PA) (Homo sapiens, UniProt P00750); test: Fluorogenic enzyme assay (Example 5); details: substrate 1 μM; for hydrolysis, t-PA (symbol N.D.): after 24 hrs, enzyme 100 nM
Protocol: (§1) Enzyme assays (except factor VIIa assays, see below) were conducted in 20 mM Tris, 150 mM NaCl, pH 7.4 (TBS) at room temperature (22° C.). The final volume for all reaction mixtures was 2.0 ml. Fluorogenic substrates were dissolved in DMSO to a stock concentration of 10 mM. The 10 mM stock solution was diluted in TBS to the final working concentration prior to all assays. Enzyme was added to mixtures containing buffer components and substrate and the initial rate of substrate hydrolysis was measured as the change in fluorescent intensity over time, corresponding to the generation of the particular 6-amino-1-naphthalenesulfonamide fluorophore from the provided substrate. Quantitation of substrate hydrolysis was accomplished by establishing a standard curve from the appropriate fluorescent moiety. Fluorescence was monitored (continuously or discontinuously) using a Perkin Elmer fluorescence spectrophotometer, model MPF-44A, equipped with a standard chart recorder. The fluorophore was detected using monochrometers set at an excitation wavelength of 352 nm and an emission wavelength of 470 nm. Light scattering artifacts were minimized using a 399 nm cut off filter in the emission light beam.
(§2) The kinetic constants of substrate hydrolysis were determined using the non-linear least squares regression analysis program ENZFITTER (Cambridge, UK). This program was used to iteratively fit initial rates of substrate hydrolysis to the Michaelis-Menten equation and the kinetic constants of substrate hydrolysis (Km) and (kcat) were calculated.

[2] = target: urokinase (u-PA) (Homo sapiens, UniProt P00749); test: Fluorogenic enzyme assay (Example 5); details: substrate 1 μM
Protocol: as §1, §2

[3] = target: plasmin (Plm) (Homo sapiens, UniProt P00747); test: Fluorogenic enzyme assay (Example 5); details: substrate 1 μM; for Time (min) for 5% hydrolysis, Plm: footnote b
Protocol: as §1, §2

[4] = target: T1, thrombin (IIa) (Homo sapiens, UniProt P00734); test: Fluorogenic enzyme assay (Example 5); details: for Km / kcat /Km, IIa / kcat, IIa: Table 7; for Time (min) for 10% hydrolysis, IIa: enzyme 100 nM
T1 construct: 0.5 nM human thrombin (IIa)
Protocol: as §1, §2

[5] = target: activated protein C (APC) (Homo sapiens, UniProt P04070); test: Fluorogenic enzyme assay (Example 5); details: for Km / kcat /Km, APC / kcat, APC: Table 7; for Time (min) for 10% hydrolysis, APC: enzyme 100 nM
Protocol: as §1, §2

[6] = target: T2, factor VIIa (Homo sapiens, UniProt P08709); test: Fluorogenic enzyme assay, relative hydrolysis rates (Table 8); details: at 100 hours; 10 nM enzyme, substrate 1 μM
T2 construct: directly measure the enzymatic activity of factor VIIa in the presence and absence of tissue factor and phospholipid
T2 sequence (P08709 213-466 limits assumed): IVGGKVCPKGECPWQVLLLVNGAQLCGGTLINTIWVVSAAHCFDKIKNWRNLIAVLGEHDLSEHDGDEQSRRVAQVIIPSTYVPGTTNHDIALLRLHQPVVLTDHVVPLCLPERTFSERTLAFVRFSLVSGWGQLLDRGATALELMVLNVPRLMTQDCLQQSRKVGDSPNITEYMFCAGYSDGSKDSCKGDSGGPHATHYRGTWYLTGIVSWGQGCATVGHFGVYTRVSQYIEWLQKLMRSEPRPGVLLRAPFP
T2 sequence (P08709 61-212 limits assumed): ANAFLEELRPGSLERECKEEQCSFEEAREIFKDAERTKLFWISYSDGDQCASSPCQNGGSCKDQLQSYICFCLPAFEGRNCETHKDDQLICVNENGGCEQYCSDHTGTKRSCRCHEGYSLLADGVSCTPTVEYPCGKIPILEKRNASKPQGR
Protocol: as §1
Factor VII assays were conducted in 20 mM HEPES, 150 mM NaCl, 5 mM CaCl2, pH 7.4 (HBS) at 37° C. The final volume for all reactions was 1.6 ml. 6-(Mes-D-Leu-Gly-Arg)amino-1-(N,N-diethyl)naphthalenesulfonamide was dissolved in DMSO to a stock concentration of 10 mM. This 10 mM stock solution of was diluted in HBS to final working concentration prior to all assays. For reactions involving tissue factor (TF) and phospholipid vesicles, recombinant human tissue factor was solubilized in either 0.04% n-dodecyl octaethylene glycol (C12 E8) or 0.8% octyl glucoside. The TF/n-dodecyl octaethylene glycol was then relipidated into PCPS or PC vesicles by a 30 minute incubation step as described by Lawson & Mann, J. Biol. Chem. 266: 11317-11327 (1991). TF/octyl glucoside was relipidated into PC or PCPS vesicles by a thirty minute incubation step followed by exhaustive dialysis. The final concentration of tissue factor used in the studies described here ranged from 2 to 50 nM depending on the nature of the experiment.
Fifteen minutes prior to the start of all reactions factor VIIa was added to the reaction system. This incubation period was followed by the addition of substrate (1 μM to 400 μM) to the mixture to start the reaction. In experiments designed to determine kinetic constants of substrate hydrolysis, 50 nM rVIIa was used when no tissue factor was present in the reaction system, while 0.5 nM rVIIa was used when tissue factor was present in the reaction system. The rate of substrate hydrolysis was measured by change in fluorescence over time, which corresponded with the generation of the 6-amino-1-(N,N-diethyl)naphthalenesulfonamide from the provided substrate. The kinetic constants of 6-(Mes-D-Leu-Gly-Arg)amino-1-(N,N-diethyl)naphthalenesulfonamide hydrolysis as a function of factor VIIa/tissue factor complex assembly are shown in Table 10.

[7] = target: factor Xa (Homo sapiens, UniProt P00742); test: Fluorogenic enzyme assay (Example 5); details: for Km / kcat /Km, Xa / kcat, Xa: Table 7; for Time (min) for 10% hydrolysis, Xa: enzyme 100 nM
Protocol: as §1, §2

[8] = target: factor IXa (Homo sapiens, UniProt P00740); test: Fluorogenic enzyme assay (Example 5); details: at 100 hours; 100 nM enzyme, substrate 1 μM
Protocol: as §1, §2

[9] = 100 nM enzyme (footnote b), substrate 1 μM

activated protein C (APC), sequence (P04070 212-461 limits assumed): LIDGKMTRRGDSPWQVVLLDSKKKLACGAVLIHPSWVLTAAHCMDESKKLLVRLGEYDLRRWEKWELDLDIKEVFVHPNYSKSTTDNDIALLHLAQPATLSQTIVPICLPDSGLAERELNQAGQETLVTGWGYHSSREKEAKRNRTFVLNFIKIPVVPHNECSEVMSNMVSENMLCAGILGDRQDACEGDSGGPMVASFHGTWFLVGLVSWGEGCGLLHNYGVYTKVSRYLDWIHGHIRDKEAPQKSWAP
activated protein C (APC), sequence (P04070 43-197 limits assumed): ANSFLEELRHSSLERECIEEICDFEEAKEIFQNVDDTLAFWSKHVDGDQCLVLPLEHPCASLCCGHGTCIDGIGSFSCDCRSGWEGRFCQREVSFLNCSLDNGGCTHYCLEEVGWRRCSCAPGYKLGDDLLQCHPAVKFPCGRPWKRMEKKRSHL
factor Xa, sequence (P00742 235-488 limits assumed): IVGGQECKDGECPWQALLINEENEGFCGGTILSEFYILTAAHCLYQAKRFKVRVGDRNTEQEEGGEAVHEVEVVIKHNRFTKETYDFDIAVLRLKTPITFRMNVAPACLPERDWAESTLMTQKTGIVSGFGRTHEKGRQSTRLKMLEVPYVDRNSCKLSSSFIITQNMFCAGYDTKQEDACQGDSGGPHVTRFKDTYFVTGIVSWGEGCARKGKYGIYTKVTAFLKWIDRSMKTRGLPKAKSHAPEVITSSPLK
factor Xa, sequence (P00742 41-179 limits assumed): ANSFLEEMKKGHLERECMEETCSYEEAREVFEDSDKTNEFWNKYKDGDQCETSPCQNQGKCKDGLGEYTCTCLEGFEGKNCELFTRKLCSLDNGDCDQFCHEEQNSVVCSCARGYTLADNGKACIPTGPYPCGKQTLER
tissue plasminogen activator (t-PA), sequence (P00750 36-562, species assumed): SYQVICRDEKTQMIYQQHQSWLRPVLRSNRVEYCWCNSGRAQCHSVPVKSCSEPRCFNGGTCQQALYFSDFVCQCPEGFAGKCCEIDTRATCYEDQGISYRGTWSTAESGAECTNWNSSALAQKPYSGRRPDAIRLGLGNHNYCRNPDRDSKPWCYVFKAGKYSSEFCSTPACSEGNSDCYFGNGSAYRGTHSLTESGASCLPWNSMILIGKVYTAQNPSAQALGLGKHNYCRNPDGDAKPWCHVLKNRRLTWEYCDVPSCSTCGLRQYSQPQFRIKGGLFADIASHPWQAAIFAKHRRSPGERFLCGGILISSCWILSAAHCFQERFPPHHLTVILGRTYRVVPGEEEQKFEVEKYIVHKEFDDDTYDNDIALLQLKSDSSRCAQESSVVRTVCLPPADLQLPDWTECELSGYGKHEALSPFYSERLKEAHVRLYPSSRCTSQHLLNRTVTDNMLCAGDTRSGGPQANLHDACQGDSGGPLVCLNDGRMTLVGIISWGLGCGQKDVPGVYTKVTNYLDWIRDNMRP
plasmin (Plm), sequence (P00747 581-810 limits assumed, species assumed): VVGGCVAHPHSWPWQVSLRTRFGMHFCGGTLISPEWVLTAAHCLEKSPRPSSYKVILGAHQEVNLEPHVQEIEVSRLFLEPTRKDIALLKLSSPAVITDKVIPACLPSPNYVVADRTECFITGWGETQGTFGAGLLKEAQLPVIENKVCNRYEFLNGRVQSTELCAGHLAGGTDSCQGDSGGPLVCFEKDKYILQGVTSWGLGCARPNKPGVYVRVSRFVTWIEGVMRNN
plasmin (Plm), sequence (P00747 97-580 limits assumed, species assumed): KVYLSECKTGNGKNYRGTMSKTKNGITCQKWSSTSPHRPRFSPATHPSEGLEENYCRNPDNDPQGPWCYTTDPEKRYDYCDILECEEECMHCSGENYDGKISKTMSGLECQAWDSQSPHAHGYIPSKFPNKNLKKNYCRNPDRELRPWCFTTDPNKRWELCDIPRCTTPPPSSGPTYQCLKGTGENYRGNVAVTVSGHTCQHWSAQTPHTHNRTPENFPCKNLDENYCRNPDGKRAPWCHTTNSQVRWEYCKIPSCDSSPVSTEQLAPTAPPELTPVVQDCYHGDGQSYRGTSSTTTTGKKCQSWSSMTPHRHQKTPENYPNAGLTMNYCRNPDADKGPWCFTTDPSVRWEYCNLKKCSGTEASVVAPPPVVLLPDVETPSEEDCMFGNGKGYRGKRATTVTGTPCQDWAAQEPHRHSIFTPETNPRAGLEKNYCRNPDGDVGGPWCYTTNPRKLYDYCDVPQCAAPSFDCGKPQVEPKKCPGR
factor IXa, sequence (P00740 227-461 limits assumed): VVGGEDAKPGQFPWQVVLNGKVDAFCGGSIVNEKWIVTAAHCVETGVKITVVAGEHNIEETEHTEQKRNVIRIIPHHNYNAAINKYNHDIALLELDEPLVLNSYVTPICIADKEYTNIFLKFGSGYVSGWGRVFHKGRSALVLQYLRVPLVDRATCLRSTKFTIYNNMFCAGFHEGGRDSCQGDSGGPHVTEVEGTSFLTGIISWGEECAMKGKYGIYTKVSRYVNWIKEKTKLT
factor IXa, sequence (P00740 47-191 limits assumed): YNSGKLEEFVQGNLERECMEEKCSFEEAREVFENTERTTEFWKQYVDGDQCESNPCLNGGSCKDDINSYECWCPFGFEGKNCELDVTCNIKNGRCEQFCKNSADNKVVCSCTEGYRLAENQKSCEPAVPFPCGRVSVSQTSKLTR

Km [4] [µM] | kcat /Km, IIa [4] [M⁻¹ s⁻¹] | kcat, IIa [4] [s⁻¹] | Time (min) for 10% hydrolysis, IIa ([4]; substrate 1 μM) [min] | Km [5] [µM] | kcat /Km, APC [5] [M⁻¹ s⁻¹] | kcat, APC [5] [s⁻¹] | Time (min) for 10% hydrolysis, APC ([5]; substrate 1 μM) [min] | Km [7] [µM] | kcat /Km, Xa [7] [M⁻¹ s⁻¹] | kcat, Xa [7] [s⁻¹] | Time (min) for 10% hydrolysis, Xa ([7]; substrate 1 μM) [min] | Time (min) for 10% hydrolysis, u-PA ([2]; enzyme 100 nM) [min] | Time (min) for 5% hydrolysis, Plm ([3]; enzyme 100 nM) [min] | Structure (SMILES) | hydrolysis, t-PA (symbol N.D.) [1] | also measured
– | – | – | – | – | – | – | – | – | – | – | – | – | – | CN(C)S(=O)(=O)c1cccc2cc(NC(=O)[C@H](CCCNC(=N)N)NC(=O)[C@H](CCCCNC(=O)OCc3ccccc3)NC(=O)OC(C)(C)C)ccc12 [(N^α -Boc,N^.cndot. -Z)KR-ANSN(CH23)2] | – | hydrolysis, t-PA (symbol d) ([1]; at 100 hours, 100 nM enzyme): d (hydrolysis at 100 hours was less than 10%.); hydrolysis, u-PA (symbol d) ([2]; at 100 hours, 100 nM enzyme): d (hydrolysis at 100 hours was less than 10%.); TIME TO 10% HYDROLYSIS (HOURS), Plm ([3]; 100 nM enzyme (footnote b)): 1.5 h; TIME TO 10% HYDROLYSIS (HOURS), IIa ([4]; 10 nM enzyme, substrate 1 μM): 18 h; TIME TO 10% HYDROLYSIS (HOURS), APC [5, 9]: 11 h; hydrolysis, VIIa (symbol d) [6]: d (hydrolysis at 100 hours was less than 10%.); TIME TO 10% HYDROLYSIS (HOURS), Xa [7, 9]: 24 h; hydrolysis, IXa (symbol d) [8]: d (hydrolysis at 100 hours was less than 10%.)
27.9 | 1090 | 0.03 | 23 | 810 | 2470 | 0.44 | 12 | 51.8 | 633 | 0.03 | 55 | – | – | Br.N=C(N)NCCC[C@H](NC(=O)OCc1ccccc1)C(=O)Nc1ccc2c(S(=O)(=O)NC3CCCCC3)cccc2c1 [(N^α -Z)ArgANSNR1 R2; H; cyclo-C6 H11] | N.D. (Less than 5% hydrolysis after 24 hrs.) | Time (min) for 5% hydrolysis, u-PA ([2]; footnote b, enzyme 100 nM): 1620 min; Time (min) for 10% hydrolysis, Plm ([3]; enzyme 100 nM): 1140 min
25 | 1180 | 0.03 | 34 | 343 | 510 | 0.17 | 50 | 102 | 800 | 0.08 | 36 | 1260 | 1370 | Br.CC(C)NS(=O)(=O)c1cccc2cc(NC(=O)[C@H](CCCNC(=N)N)NC(=O)OCc3ccccc3)ccc12 [(N^α -Z)ArgANSNR1 R2; H; i-C3 H7] | N.D. (Less than 5% hydrolysis after 24 hrs.) | –
35.3 | 1420 | 0.05 | 25 | 960 | 1670 | 1.6 | 17 | 86.5 | 811 | 0.07 | 33 | 200 | 1620 | Br.CC(C)CNS(=O)(=O)c1cccc2cc(NC(=O)[C@H](CCCNC(=N)N)NC(=O)OCc3ccccc3)ccc12 [(N^α -Z)ArgANSNR1 R2; H; i-C4 H9] | N.D. (Less than 5% hydrolysis after 24 hrs.) | –
